How the values were obtained:
[1] = biological target: Bifunctional 3'-5' exonuclease/ATP-dependent helicase WRN (Homo sapiens, UniProt Q14191); test: ADP-Glo Kinase Assay
Description: ATPase activity was measured using the ADP-Glo Kinase Assay following the manufacturers recommended protocol.

[2] = biological target: T1, Bifunctional 3'-5' exonuclease/ATP-dependent helicase WRN [480-1251] (UniProt Q14191); test: Biochemical Activity Assays
T1 construct: 480-1251
Description: The pure fractions were pooled and desalted/buffer exchanged into storage buffer using a HiTrap desalting column. […] First, WRN alone was pre-incubated with DMSO or compound of interest for 15 minutes. To initiate the reaction, ATP, dsDNA substrate, and ssDNA competitor (ssDNA_comp: […]) were added and incubated at room temperature for 20 minutes at which point DNA unwinding activity was monitored by measuring Cy3 fluorescence. After obtaining the reading, the ATPase activity was measured using the ADP-Glo Kinase Assay following the manufacturers recommended protocol. […] Compounds were assayed in a 10-point dose response in duplicate at a 1% DMSO final assay concentration.

T1 sequence (Q14191 480-1251): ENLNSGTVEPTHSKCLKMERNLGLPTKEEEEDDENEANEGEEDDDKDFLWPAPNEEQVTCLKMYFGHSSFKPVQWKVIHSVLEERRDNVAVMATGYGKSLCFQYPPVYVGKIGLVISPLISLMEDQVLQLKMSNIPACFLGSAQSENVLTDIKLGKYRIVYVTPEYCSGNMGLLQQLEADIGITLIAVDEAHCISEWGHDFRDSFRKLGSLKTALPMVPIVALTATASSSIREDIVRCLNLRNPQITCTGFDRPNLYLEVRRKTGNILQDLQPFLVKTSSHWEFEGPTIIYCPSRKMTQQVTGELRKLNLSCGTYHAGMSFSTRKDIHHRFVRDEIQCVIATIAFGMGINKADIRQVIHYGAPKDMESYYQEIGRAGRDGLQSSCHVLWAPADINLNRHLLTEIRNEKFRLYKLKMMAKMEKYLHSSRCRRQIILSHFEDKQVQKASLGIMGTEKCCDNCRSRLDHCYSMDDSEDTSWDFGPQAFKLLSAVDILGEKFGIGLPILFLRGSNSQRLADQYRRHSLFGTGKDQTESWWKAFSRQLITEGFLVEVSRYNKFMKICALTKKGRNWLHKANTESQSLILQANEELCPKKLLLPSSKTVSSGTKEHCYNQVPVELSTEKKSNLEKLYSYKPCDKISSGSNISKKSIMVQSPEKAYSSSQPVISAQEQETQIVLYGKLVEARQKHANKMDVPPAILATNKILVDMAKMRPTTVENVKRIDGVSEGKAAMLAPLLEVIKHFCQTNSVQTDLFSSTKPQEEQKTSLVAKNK
Sequence of Bifunctional 3'-5' exonuclease/ATP-dependent helicase WRN (Q14191 whole entry): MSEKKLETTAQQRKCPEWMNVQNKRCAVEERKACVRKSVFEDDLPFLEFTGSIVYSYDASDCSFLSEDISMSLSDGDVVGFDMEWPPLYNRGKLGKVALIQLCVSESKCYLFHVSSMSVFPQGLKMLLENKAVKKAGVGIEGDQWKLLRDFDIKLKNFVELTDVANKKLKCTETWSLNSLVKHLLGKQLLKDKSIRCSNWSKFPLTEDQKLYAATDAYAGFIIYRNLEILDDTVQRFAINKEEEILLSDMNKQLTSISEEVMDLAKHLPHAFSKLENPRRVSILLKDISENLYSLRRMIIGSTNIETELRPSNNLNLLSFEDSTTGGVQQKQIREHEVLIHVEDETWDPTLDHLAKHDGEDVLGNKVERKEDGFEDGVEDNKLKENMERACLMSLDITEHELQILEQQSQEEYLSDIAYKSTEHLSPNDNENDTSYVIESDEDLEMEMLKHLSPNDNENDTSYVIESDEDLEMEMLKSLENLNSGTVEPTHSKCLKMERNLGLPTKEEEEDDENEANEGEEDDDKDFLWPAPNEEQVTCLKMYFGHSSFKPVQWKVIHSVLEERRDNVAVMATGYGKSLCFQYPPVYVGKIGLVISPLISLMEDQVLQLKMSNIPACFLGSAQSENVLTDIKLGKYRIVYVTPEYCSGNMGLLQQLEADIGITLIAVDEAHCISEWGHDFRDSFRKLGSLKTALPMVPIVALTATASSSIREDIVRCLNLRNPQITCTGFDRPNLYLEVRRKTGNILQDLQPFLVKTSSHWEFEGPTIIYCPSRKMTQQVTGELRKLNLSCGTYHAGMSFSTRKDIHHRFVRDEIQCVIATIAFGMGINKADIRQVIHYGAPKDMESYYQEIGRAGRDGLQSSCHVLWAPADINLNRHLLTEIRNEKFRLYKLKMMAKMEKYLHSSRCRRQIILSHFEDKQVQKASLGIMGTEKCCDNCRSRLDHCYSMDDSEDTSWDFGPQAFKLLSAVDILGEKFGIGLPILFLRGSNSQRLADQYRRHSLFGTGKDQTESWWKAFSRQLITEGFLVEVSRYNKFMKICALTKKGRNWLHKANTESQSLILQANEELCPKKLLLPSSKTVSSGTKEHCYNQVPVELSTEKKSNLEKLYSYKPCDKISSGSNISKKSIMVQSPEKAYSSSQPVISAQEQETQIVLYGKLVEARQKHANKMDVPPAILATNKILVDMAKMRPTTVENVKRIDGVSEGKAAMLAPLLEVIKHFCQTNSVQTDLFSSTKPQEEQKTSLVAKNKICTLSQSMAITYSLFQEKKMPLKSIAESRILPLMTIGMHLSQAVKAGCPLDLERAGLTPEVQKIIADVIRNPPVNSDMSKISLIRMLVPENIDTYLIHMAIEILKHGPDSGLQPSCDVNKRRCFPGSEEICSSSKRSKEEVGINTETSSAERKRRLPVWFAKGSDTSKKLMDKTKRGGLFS

IC50 [1] [nM] | IC50 [2] [nM] | SMILES
25 | 30 | CCc1c(N2CCN(C(=O)c3ncnc(C)c3O)CC2)c(=O)n2nc(-c3ccc4nn(CC)cc4c3)nc2n1CC(=O)Nc1ccc(C(F)(F)F)cc1Cl [WO2025049746, Example 319]
47 | 56 | CCc1c(N2CCN(C(=O)c3ncnc(C)c3O)CC2)c(=O)n2nc(-c3cc(C)c4c(c3)COC4(C)C)nc2n1CC(=O)Nc1ccc(C(F)(F)F)cc1Cl [WO2025049746, Example 221]
32 | 33 | CCc1c(N2CCN(C(=O)c3ncnc(C)c3O)CC2)c(=O)n2nc(-c3ccc4c(c3)nnn4C)nc2n1CC(=O)Nc1ccc(C(F)(F)F)cc1Cl [WO2025049746, Example 314]
32 | 26 | CCc1c(N2CCN(C(=O)c3ncnc(C)c3O)CC2)c(=O)n2nc(-c3ccc4c(c3)CN(C)C4=O)nc2n1CC(=O)Nc1ccc(C(F)(F)F)cc1Cl [WO2025049746, Example 185]
28 | 31 | CCc1c(N2CCN(C(=O)c3ncnc(C)c3O)CC2)c(=O)n2nc(-c3ccc4nccnc4c3)nc2n1CC(=O)Nc1ccc(C(F)(F)F)cc1Cl [WO2025049746, Example 280]
72 | 85 | CCc1c(N2CCN(C(=O)c3ncnc(C)c3O)CC2)c(=O)n2nc(-c3ccc4c(c3)CO[C@@H]4C(F)(F)F)nc2n1CC(=O)Nc1ccc(C(F)(F)F)cc1Cl [WO2025049746, Example 276]
23 | 24 | CCc1c(N2CCN(C(=O)c3ncnc(C)c3O)CC2)c(=O)n2nc(-c3ccc4[nH]c(=O)ccc4c3)nc2n1CC(=O)Nc1ccc(C(F)(F)F)cc1Cl [WO2025049746, Example 318]
71 | 49 | CCc1c(N2CCN(C(=O)c3ncnc(C)c3O)CC2)c(=O)n2nc(-c3cccc4c3OCC4)nc2n1CC(=O)Nc1ccc(C(F)(F)F)cc1Cl [WO2025049746, Example 158]
47 | 49 | CCc1c(N2CCN(C(=O)c3ncnc(C)c3O)CC2)c(=O)n2nc(-c3ccc4c(c3)CN(C)CC4)nc2n1CC(=O)Nc1ccc(C(F)(F)F)cc1Cl [WO2025049746, Example 308]
45 | 35 | CCc1c(N2CCN(C(=O)c3ncnc(C)c3O)CC2)c(=O)n2nc(-c3ccc4c(c3)CC(C)O4)nc2n1CC(=O)Nc1ccc(C(F)(F)F)cc1Cl (stereo unspecified) [WO2025049746, Example 168]
26 | 29 | CCc1c(N2CCN(C(=O)c3ncnc(C)c3O)CC2)c(=O)n2nc(-c3ccc4c(c3)CS(=O)(=O)N4C)nc2n1CC(=O)Nc1ccc(C(F)(F)F)cc1Cl [WO2025049746, Example 279]
24.9 | 22.4 | CCc1c(N2CCN(C(=O)c3ncnc(C)c3O)CC2)c(=O)n2nc(-c3cccc4c3OCO4)nc2n1CC(=O)Nc1ccc(C(F)(F)F)cc1Cl [WO2025049746, Example 16]
39 | 34 | CCc1c(N2CCN(C(=O)c3ncnc(C)c3O)CC2)c(=O)n2nc(-c3ccc4c(c3)CC[C@H]4OC)nc2n1CC(=O)Nc1ccc(C(F)(F)F)cc1Cl [WO2025049746, Example 208]
23 | 24 | CCc1c(N2CCN(C(=O)c3ncnc(C)c3O)CC2)c(=O)n2nc(-c3ccc4nc(C)cn4c3)nc2n1CC(=O)Nc1ccc(C(F)(F)F)cc1Cl [WO2025049746, Example 255]
9990 |  | CCc1c(N2CCN(C(=O)c3ncnc(C)c3O)CC2)c(=O)n2nc(-c3ccc4c(c3C)COC4)nc2n1CC(=O)Nc1ccc(C(F)(F)F)cc1Cl [WO2025049746, Example 196]
 | 66.2 | CCc1c(N2CCN(C(=O)c3ncnc(C)c3O)CC2)c(=O)n2nc(-c3cccc4c3CCOC4)nc2n1CC(=O)Nc1ccc(C(F)(F)F)cc1Cl [WO2025049746, Example 4]

More lines, now with the values behind:

SMILES | IC50 [1] [nM] | IC50 [2] [nM]
CCc1c(N2CCN(C(=O)C3CCOCC3)CC2)c(=O)n2nc(-c3ccnc(O)n3)nc2n1CC(=O)Nc1ccc(C(F)(F)F)cc1Cl [WO2025049746, Example 431] | 29700 | 
CCc1c(N2CCN(C(=O)c3nc4c(cc3O)COCC4)CC2)c(=O)n2nc(-c3ccc4c(c3)COC4)nc2n1CC(=O)Nc1ccc(C(F)(F)F)cc1Cl [WO2025049746, Example 440] | 46 | 48
CCc1c(N2CCN(C(=O)c3nccc4nc[nH]c34)CC2)c(=O)n2nc(-c3ccc4c(c3)CCOC4)nc2n1CC(=O)Nc1ccc(C(F)(F)F)cc1Cl [WO2025049746, Example 92] | 27.9 | 23
CCc1c(N2CCN(C(=O)c3ncnc(C)c3O)CC2)c(=O)n2nc(C3=CCOCC3)nc2n1CC(=O)NC12CC(C3CCC3)(C1)C2 [WO2025049746, Example 352] | 174 | 122
CCc1c(N2CCN(C(=O)c3ncnc(C)c3O)CC2)c(=O)n2nc(-c3cccc4c3OCCO4)nc2n1CC(=O)Nc1c(Cl)cc(C(F)(F)F)c2c1CC2 [WO2025049746, Example 388] | 87 | 58
CCc1c(N2CCN(C(=O)c3ncnc(C)c3O)CC2)c(=O)n2nc(C3=CCOCC3)nc2n1CC(=O)NC1CCC(F)(F)CC1 [WO2025049746, Example 351] | 3960 | 3670
CCc1c(N2CCN(C(=O)c3ncnc(C)c3O)CC2)c(=O)n2nc(-c3ccc4c(c3)COC4)nc2n1CC(=O)Nc1c(Cl)cc(C(F)(F)F)c2ccoc12 [WO2025049746, Example 447] | 38 | 38
CCc1c(N2CCN(C(=O)C3=CCOCC3)CC2)c(=O)n2nc(-c3ncc(O)cn3)nc2n1CC(=O)Nc1ccc(C(F)(F)F)cc1Cl [WO2025049746, Example 436] | 103 | 50
CCc1c(N2CCN(C(=O)c3ncnc(C)c3O)CC2)c(=O)n2nc(-c3ccc4c(c3)OCC4)nc2n1CC(=O)Nc1c(Cl)cc(C(F)(F)F)c2c1CC2 [WO2025049746, Example 381] | 55 | 40
CCc1c(N2CCN(C(=O)c3nccc4cc[nH]c34)CC2)c(=O)n2nc(-c3ccc4c(c3)COC4(C)C)nc2n1CC(=O)Nc1ccc(C(F)(F)F)cc1Cl [WO2025049746, Example 454] | 490 | 373
CCc1c(N2CCN(C(=O)c3cccc4c3NS(=O)(=O)CC4)CC2)c(=O)n2nc(-c3ccc4c(c3)COC4)nc2n1CC(=O)Nc1ccc(C(F)(F)F)cc1Cl [WO2025049746, Example 425] | 34 | 27
CCc1c(N2CC[C@@H](C)N(C(=O)c3ncnc(C)c3O)CC2)c(=O)n2nc(-c3ccc4c(c3)COC4(C)C)nc2n1CC(=O)Nc1ccc(C(F)(F)F)cc1Cl [WO2025049746, Example 461] | 45 | 50
CCc1c(N2CCN(C(=O)c3ncnc(C)c3O)CC2)c(=O)n2nc(-c3ccn4nccc4c3F)nc2n1CC(=O)Nc1ccc(C(F)(F)F)cc1Cl [WO2025049746, Example 241] | 18 | 19
CCc1c(N2CCN(C(=O)c3ncnc(C)c3O)CC2)c(=O)n2nc(-c3ccc4c(c3)CCOC4)nc2n1CC(=O)Nc1ccc(C(F)(F)F)c2c1CC2 [WO2025049746, Example 98] | 30.8 | 23.9
CCc1c(N2CCN(C(=O)/C=C/C(=O)c3ccc(OC)cc3)CC2)c(=O)n2nc(C3=CCOCC3)nc2n1CC(=O)Nc1ccc(C(F)(F)F)cc1Cl [WO2025049746, Example 344] | 289 | 242
CCc1c(N2CCN(C(=O)c3ncnc(C)c3O)CC2)c(=O)n2nc(-c3coc4ccccc34)nc2n1CC(=O)Nc1ccc(C(F)(F)F)cc1Cl [WO2025049746, Example 327] | 30 | 56
CCc1c(N2CCN(C(=O)c3ccccc3NS(=O)(=O)C3CC3)CC2)c(=O)n2nc(-c3ccc4c(c3)CCOC4)nc2n1CC(=O)Nc1ccc(C(F)(F)F)cc1Cl [WO2025049746, Example 91] | 106 | 84.6
CCc1c(N2CCN(C(=O)c3ncnc(C)c3O)CC2)c(=O)n2nc(C3=CCOCC3)nc2n1CC(=O)Nc1c(Cl)cc(C(F)(F)F)c2scnc12 [WO2025049746, Example 373] | 64 | 51
CCc1c(N2CCN(C(=O)c3ncnc(C)c3O)CC2)c(=O)n2nc(-c3cc4n(n3)CCC4)nc2n1CC(=O)Nc1ccc(C(F)(F)F)cc1Cl [WO2025049746, Example 183] | 52 | 46
Cc1ncnc(C(=O)N2CCN(c3c4n(c5nc(-c6ccc7c(c6)COC7(C)C)nn5c3=O)[C@H](C(=O)Nc3ccc(C(F)(F)F)cc3Cl)C[C@@H]4C)[C@H]3CC[C@@H]32)c1O [WO2025049746, Example 468] | 38.1 | 42.4
CCc1c(N2CCC3C2CCCN3C(=O)c2ncnc(C)c2O)c(=O)n2nc(C3=CCOCC3)nc2n1CC(=O)Nc1ccc(C(F)(F)F)cc1Cl (stereo unspecified) [WO2025049746, Example 347] | 132 | 84
CCc1c(N2CC3CCN(C(=O)c4ncnc(C)c4O)CC32)c(=O)n2nc(C3=CCOCC3)nc2n1CC(=O)Nc1ccc(C(F)(F)F)cc1Cl (stereo unspecified) [WO2025049746, Example 346] | 29700 | 
CCc1c(N2CCN(C(=O)c3ncnc(C)c3O)CC2)c(=O)n2nc(-c3cncc4c3CCOC4)nc2n1CC(=O)Nc1ccc(C(F)(F)F)cc1Cl [WO2025049746, Example 163] | 29700 | 
CCc1c(N2CCN(C(=O)c3ncnc(C)c3O)CC2)c(=O)n2nc(C3=CCOCC3)nc2n1CC(=O)NC12CC(C34CC(C(C)(F)F)(C3)C4)(C1)C2 [WO2025049746, Example 354] | 29700 | 
CCc1c(N2CCN(C(=O)c3ncnc(C)c3O)CC2)c(=O)n2nc(C3=CCOCC3)nc2n1CC(=O)NC12CCC(C(F)(F)F)(CC1)OC2 [WO2025049746, Example 358] | 29700 | 
CCc1c(N2CCN(C(=O)c3ncnc(C)c3O)CC2)c(=O)n2nc(-c3cc(OC)c(OC)c(OC)c3)nc2n1CC(=O)Nc1ccc(C(F)(F)F)cc1Cl [WO2025049746, Example 268] | 29700 | 
